Assay results from US10947252B2, “Inhibitors of KEAP1-Nrf2 protein-protein interaction” (Janssen Pharmaceutica NV, priority 2018, dated 2021).

Test system: Glo-Response ARE-luc2P HEK293 cell line
Assay: ARE luciferase reporter cell-based assay;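 further: luciferase signal tracks Nrf2 activation of the ARE once compounds disrupt KEAP1-Nrf2 binding, read with One-Glo reagent, DMSO serving as low control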
Conditions: average of results obtained

| SMILES | EC50 (Homo sapiens, HEK293, 24 h) [µM] | EC50 (24 hours) [µM] |
| --- | --- | --- |
| CCCCNc1ccc2c(n1)OC1(CC1)CN(Cc1cc([C@H](CC(=O)O)c3ccn4c(C(F)(F)F)nnc4c3C)ccc1C)S2(=O)=O (single isomer, unassigned) [Example 113, (*S)-3-(3-((7′-(Butylamino)-1′,1′-dioxidospiro[cyclopropane-1,4′-pyrido[2,3-b][1,4,5]oxathiazepin]-2′(3′H)-yl)methyl)-4-methylphenyl)-3-(8-methyl-3-(trifluoromethyl)-[1,2,4[triazolo[4,3-a]pyridine-7-yl)propanoic Acid] | 0.49 |  |
| Cc1ccc([C@@H](c2ccn3c(C(F)(F)F)nnc3c2C)C(C)(C)C(=O)O)cc1CN1CC2(CCOCC2)Oc2nc(OCCN3CCCCC3)ccc2S1(=O)=O (single isomer, unassigned) [Example 127] | 0.0118 |  |
| CCn1nnc2c(C)c([C@H](CC(=O)O)c3ccc(C)c(CN4CC(C)(C)Oc5ccccc5S4(=O)=O)c3)ccc21 (single isomer, unassigned) [Example 159, (*R)-3-(3-((4,4-Dimethyl-1,1-dioxido-3,4-dihydro-2H-benzo[b][1,4,5]oxathiazepin-2-yl)methyl)-4-methylphenyl)-3-(1-ethyl-4-methyl-1H-benzo[d][1,2,3]triazol-5-yl)propanoic Acid] | 0.034 |  |
| Cc1ccc([C@H](CC(=O)O)c2ccn3c(C(F)(F)F)nnc3c2C)cc1CN1C[C@H]2CCCCN2c2nc(C#N)ccc2S1(=O)=O (relative stereo) [Example 204, (*S)-3-(3-(((*R)-2-Cyano-5,5-dioxido-7,7a,8,9,10,11-hexahydro-6H-dipyrido[2,1-d:2′,3′-f][1,2,5]thiadiazepin-6-yl)methyl)-4-methylphenyl)-3-(8-methyl-3-(trifluoromethyl)-[1,2,4]triazolo[4,3-a]pyridin-7-yl)propanoic Acid] | 0.0059 |  |
| Cc1ccc([C@H](CC(=O)O)c2ccn3c(C(F)(F)F)nnc3c2C)nc1CN1C[C@H]2CCCCN2c2ncc(Cl)cc2S1(=O)=O (relative stereo) [Example 522, (*R)-3-(6-(((*R)-3-Chloro-5,5-dioxido-7,7a,8,9,10,11-hexahydro-6H-dipyrido[2,1-d:2′,3′-f][1,2,5]thiadiazepin-6-yl)methyl)-5-methylpyridin-2-yl)-3-(8-methyl-3-(trifluoromethyl)-[1,2,4]triazolo[4,3-a]pyridin-7-yl)propanoic Acid] | 0.00506 |  |
| CCn1nnc2c(C)c([C@H](CC(=O)O)c3ccc(C)c(CN4C[C@H]5CCCCN5c5ncccc5S4(=O)=O)c3)ccc21 (single isomer, unassigned) [Example 146, (*R)-3-(3-(((*R)-5,5-Dioxido-7,7a,8,9,10,11-hexahydro-6H-dipyrido[2,1-d:2′,3′-f][1,2,5]thiadiazepin-6-yl)methyl)-4-methylphenyl)-3-(1-ethyl-4-methyl-1H-benzo[d][1,2,3]triazol-5-yl)propanoic Acid] | 0.0042 |  |
| Cc1ccc([C@H](CC(=O)O)c2ccn3c(C(F)F)nnc3c2C)cc1CN1CC2(CCOCC2)Oc2ccc(F)cc2S1(=O)=O (single isomer, unassigned) [Example 524, (*S)-3-(3-(Difluoromethyl)-8-methyl-[1,2,4]triazolo[4,3-a]pyridin-7-yl)-3-(3-((8-fluoro-1,1-dioxido-2′,3′,5′,6′-tetrahydrospiro[benzo[b][1,4,5]oxathiazepine-4,4′-pyran]-2(3H)-yl)methyl)-4-methylphenyl)propanoic Acid] | 0.0197 |  |
| Cc1ccc([C@H](CC(=O)O)c2ccn3c(C(F)(F)F)nnc3c2C)cc1CN1CC2(CC2)Oc2nc(N(C)CCO)ccc2S1(=O)=O (single isomer, unassigned) [Example 110, (*S)-3-(-3-((7′-((3-Hydroxyethyl)(methyl)amino)-1′,1′-dioxidospiro[cyclopropane-1,4′-pyrido[2,3-b][1,4,5]oxathiazepin]-2′(3′H)-yl)methyl)-4-methylphenyl)-3-(8-methyl-3-(trifluoromethyl)-[1,2,4[triazolo[4,3-a]pyridine-7-yl)propanoic Acid] | 0.485 |  |
| Cc1ccc([C@H](c2ccn3c(C(F)F)nnc3c2C)C(C)(C)C(=O)O)cc1CN1CC2(CC2)Oc2ncccc2S1(=O)=O (single isomer, unassigned) [Example 568, (*R)-3-(3-(Difluoromethyl)-8-methyl-[1,2,4]triazolo[4,3-a]pyridin-7-yl)-3-(3-((1′,1′-dioxidospiro[cyclopropane-1,4′-pyrido[2,3-b][1,4,5]oxathiazepin]-2′(3′H)-yl)methyl)-4-methylphenyl)-2,2-dimethylpropanoic Acid] | 0.192 |  |
| Cc1ccc([C@H](CC(=O)O)c2ccn3c(C(F)F)nnc3c2C)cc1CN1CC2(CC2)Oc2ncc(Cl)cc2S1(=O)=O (single isomer, unassigned) [Example 530, (*S)-3-(3-((8′-Chloro-1′,1′-dioxidospiro[cyclopropane-1,4′-pyrido[2,3-b][1,4,5]oxathiazepin]-2′(3′H)-yl)methyl)-4-methylphenyl)-3-(3-(difluoromethyl)-8-methyl-[1,2,4]triazolo[4,3-a]pyridin-7-yl)propanoic Acid] | 0.0103 |  |
| COCCCOc1ccc2c(n1)OC1(CC1)CN(Cc1cc([C@H](CC(=O)O)c3ccn4c(C(F)(F)F)nnc4c3C)ccc1C)S2(=O)=O (single isomer, unassigned) [Example 109, (*S)-3-(-3-((7′-((3-Methoxypropoxy)-1′,1′-dioxidospiro[cyclopropane-1,4′-pyrido[2,3-b][1,4,5]oxathiazepin]-2′(3′H)-yl)methyl)-4-methylphenyl)-3-(8-methyl-3-(trifluoromethyl)-[1,2,4[triazolo[4,3-a]pyridine-7-yl)propanoic Acid] | 0.128 |  |
| CCn1nnc2c(C)c(C(CC(=O)O)c3ccc(C)c(CN4C[C@@H]5CCCN5c5ccccc5S4(=O)=O)c3)ccc21 (mixture of isomers) [Example 147, (R/S)-3-(3-(((S)-5,5-Dioxido-7a,8,9,10-tetrahydrobenzo[f]pyrrolo[2,1-d][1,2,5]thiadiazepin-6(7H)-yl)methyl)-4-methylphenyl)-3-(1-ethyl-4-methyl-1H-benzo[d][1,2,3]triazol-5-yl)propanoic Acid] | 0.019 |  |
| Cc1ccc([C@H](CC(=O)O)c2ccn3c(C(F)(F)F)nnc3c2C)cc1CN1C[C@@H]2CCCCN2c2nc(C(N)=O)ccc2S1(=O)=O (relative stereo) [Example 203, (*S)-3-(3-(((*S)-2-Carbamoyl-5,5-dioxido-7,7a,8,9,10,11-hexahydro-6H-dipyrido[2,1-d:2′,3′-f][1,2,5]thiadiazepin-6-yl)methyl)-4-methylphenyl)-3-(8-methyl-3-(trifluoromethyl)-[1,2,4]triazolo[4,3-a]pyridin-7-yl)propanoic Acid] | 0.15 |  |
| Cc1ccc(C(c2ccn3c(C(F)(F)F)nnc3c2C)C(C)C(=O)O)cc1CN1C[C@@H]2CCCCN2c2ncccc2S1(=O)=O (stereo in doubt) [Example 129, 3-(3-(((*S)-5,5-Dioxido-7,7a,8,9,10,11-hexahydro-6H-dipyrido[2,1-d:2′,3′-f][1,2,5]thiadiazepin-6-yl)methyl)-4-methylphenyl)-2-methyl-3-(8-methyl-3-(trifluoromethyl)-[1,2,4]triazolo[4,3-a]pyridine-7-yl)propanoic Acid] |  | 0.0068 |
| Cc1ccc(C(CC(=O)O)c2ccc3c(nnn3C3CC3)c2C)cc1CN1CC2(CC2)N(C)c2ncccc2S1(=O)=O (racemic) [Example 224, (R/S)-3-(1-Cyclopropyl-4-methyl-1H-benzo[d][1,2,3]triazol-5-yl)-3-(4-methyl-3-((5′-methyl-1′,1′-dioxido-5′H-spiro[cyclopropane-1,4′-pyrido[2,3-f][1,2,5]thiadiazepin]-2′(3′H)-yl)methyl)phenyl)propanoic Acid] | 0.02 |  |
| Cc1ncc(C(c2ccn3c(C(F)(F)F)nnc3c2C)C(C)(C)C(=O)O)cc1CN1CC2(CCOCC2)Oc2ncccc2S1(=O)=O (racemic) [Example 569, (R/S)-3-(5-((1′,1′-Dioxido-2,3,5,6-tetrahydrospiro[pyran-4,4′-pyrido[2,3-b][1,4,5]oxathiazepin]-2′(3′H)-yl)methyl)-6-methylpyridin-3-yl)-2,2-dimethyl-3-(8-methyl-3-(trifluoromethyl)-[1,2,4]triazolo[4,3-a]pyridin-7-yl)propanoic Acid] | 1.37 |  |
| Cc1cnc2c(c1)S(=O)(=O)N(Cc1cc(C(c3ccn4c(C(F)(F)F)nnc4c3C)C(C)(C)C(=O)O)cnc1C)CC1(CC1)O2 (racemic) [Example 572] | 0.392 |  |
| CC[C@@H]1CN(Cc2cc([C@H](CC(=O)O)c3ccn4c(C(F)F)nnc4c3C)ccc2C)S(=O)(=O)c2cccnc2O1 (relative stereo) [Example 464, (*S)-3-(3-(Difluoromethyl)-8-methyl-[1,2,4]triazolo[4,3-a]pyridin-7-yl)-3-(3-(((R)-4-ethyl-1,1-dioxido-3,4-dihydro-2H-pyrido[2,3-b][1,4,5]oxathiazepin-2-yl)methyl)-4-methylphenyl)propanoic Acid] | 0.0247 |  |
| Cc1ccc([C@H](CC(=O)O)c2ccn3c(C(F)(F)F)nnc3c2C)cc1CN1CC2(CC2)Oc2ccc(F)cc2S1(=O)=O (single isomer, unassigned) [Example 98, (*S)-3-(3-((8-Fluoro-1,1-dioxidospiro[benzo[b][1,4,5]oxathiazepin]-4,1′-cyclopropan]-2(3H)-yl)methyl)-4-methylphenyl)-3-(8-methyl-3-(trifluoromethyl)-[1,2,4]triazolo[4,3-a]pyridin-7-yl)propanoic Acid] | 0.016 |  |
| Cc1ccc([C@@H](c2ccn3c(C(F)(F)F)nnc3c2C)C(C)C(=O)O)cc1CN1CC2(CCOCC2)Oc2ccc(F)cc2S1(=O)=O (single isomer, unassigned) [Example 416, (3S*)-3-(3-((8-fluoro-1,1-dioxido-2′,3′,5′,6′-tetrahydrospiro[benzo[b][1,4,5]oxathiazepine-4,4′-pyran]-2(3H)-yl)methyl)-4-methylphenyl)-2-methyl-3-(8-methyl-3-(trifluoromethyl)-[1,2,4]triazolo[4,3-a]pyridin-7-yl)propanoic Acid] | 0.00253 |  |
